ChEMBL document CHEMBL3098008, “Lactam based 7-amino suberoylamide hydroxamic acids as potent HDAC inhibitors” (Bioorg Med Chem Lett, 2014)

What was measured:
[1] = Cytotoxicity against human H460 cells; format: functional, cell-based; details: NCI-H460
[2] = biological target: Histone deacetylase 3/Nuclear receptor corepressor 2 (HDAC3/NCoR2) (Homo sapiens, UniProt O15379); assay: Inhibition of human HDAC3/NCOR2 using RHKK(Ac) as substrate by fluorimetric analysis; format: protein-complex assay
[3] = biological target: T1, Polyamine deacetylase HDAC10 (Homo sapiens, UniProt Q969S8); assay: Inhibition of human HDAC10 using RHKK(Ac) as substrate by fluorimetric analysis
T1 sequence (Q969S8 whole entry): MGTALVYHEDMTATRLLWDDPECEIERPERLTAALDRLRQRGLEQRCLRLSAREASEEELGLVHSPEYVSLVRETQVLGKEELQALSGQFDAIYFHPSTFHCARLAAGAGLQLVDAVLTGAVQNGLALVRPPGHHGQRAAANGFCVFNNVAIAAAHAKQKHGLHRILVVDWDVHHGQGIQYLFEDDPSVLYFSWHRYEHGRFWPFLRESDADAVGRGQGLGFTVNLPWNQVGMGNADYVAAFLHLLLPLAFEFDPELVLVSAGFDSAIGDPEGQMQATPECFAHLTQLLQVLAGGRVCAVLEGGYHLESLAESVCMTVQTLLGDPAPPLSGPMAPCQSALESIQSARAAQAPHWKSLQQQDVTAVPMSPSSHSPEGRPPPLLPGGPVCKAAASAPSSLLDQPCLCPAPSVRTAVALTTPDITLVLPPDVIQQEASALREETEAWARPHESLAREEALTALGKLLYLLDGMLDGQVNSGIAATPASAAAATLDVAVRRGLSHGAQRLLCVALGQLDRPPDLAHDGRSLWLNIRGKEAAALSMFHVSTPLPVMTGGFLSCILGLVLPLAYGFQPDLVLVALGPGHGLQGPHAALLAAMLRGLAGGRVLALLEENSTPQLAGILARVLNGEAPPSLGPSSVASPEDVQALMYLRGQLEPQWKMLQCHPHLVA

Histone deacetylase 11 = biological target: T2, Histone deacetylase 11 (Homo sapiens, UniProt Q96DB2); assay: Inhibition of human HDAC11 using RHKK(Ac) as substrate by fluorimetric analysis
T2 sequence (Q96DB2 whole entry): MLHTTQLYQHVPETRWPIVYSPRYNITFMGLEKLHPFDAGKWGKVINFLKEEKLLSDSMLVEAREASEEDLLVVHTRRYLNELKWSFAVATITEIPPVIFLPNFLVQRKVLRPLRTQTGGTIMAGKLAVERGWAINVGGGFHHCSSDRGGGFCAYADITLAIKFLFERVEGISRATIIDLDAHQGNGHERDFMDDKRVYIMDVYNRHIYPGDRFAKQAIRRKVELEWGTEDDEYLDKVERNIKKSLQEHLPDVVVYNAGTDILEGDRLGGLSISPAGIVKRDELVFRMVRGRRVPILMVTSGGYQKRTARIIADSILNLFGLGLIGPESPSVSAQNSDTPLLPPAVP

Histone deacetylase 2 = Histone deacetylase 2 (Homo sapiens, UniProt Q92769); assay: Inhibition of human HDAC2 using RHKK(Ac) as substrate by fluorimetric analysis
[4] = biological target: T3, Protein deacetylase HDAC6 (Homo sapiens, UniProt Q9UBN7); assay: Inhibition of human HDAC6 using RHKK(Ac) as substrate by fluorimetric analysis
T3 sequence (Q9UBN7 whole entry): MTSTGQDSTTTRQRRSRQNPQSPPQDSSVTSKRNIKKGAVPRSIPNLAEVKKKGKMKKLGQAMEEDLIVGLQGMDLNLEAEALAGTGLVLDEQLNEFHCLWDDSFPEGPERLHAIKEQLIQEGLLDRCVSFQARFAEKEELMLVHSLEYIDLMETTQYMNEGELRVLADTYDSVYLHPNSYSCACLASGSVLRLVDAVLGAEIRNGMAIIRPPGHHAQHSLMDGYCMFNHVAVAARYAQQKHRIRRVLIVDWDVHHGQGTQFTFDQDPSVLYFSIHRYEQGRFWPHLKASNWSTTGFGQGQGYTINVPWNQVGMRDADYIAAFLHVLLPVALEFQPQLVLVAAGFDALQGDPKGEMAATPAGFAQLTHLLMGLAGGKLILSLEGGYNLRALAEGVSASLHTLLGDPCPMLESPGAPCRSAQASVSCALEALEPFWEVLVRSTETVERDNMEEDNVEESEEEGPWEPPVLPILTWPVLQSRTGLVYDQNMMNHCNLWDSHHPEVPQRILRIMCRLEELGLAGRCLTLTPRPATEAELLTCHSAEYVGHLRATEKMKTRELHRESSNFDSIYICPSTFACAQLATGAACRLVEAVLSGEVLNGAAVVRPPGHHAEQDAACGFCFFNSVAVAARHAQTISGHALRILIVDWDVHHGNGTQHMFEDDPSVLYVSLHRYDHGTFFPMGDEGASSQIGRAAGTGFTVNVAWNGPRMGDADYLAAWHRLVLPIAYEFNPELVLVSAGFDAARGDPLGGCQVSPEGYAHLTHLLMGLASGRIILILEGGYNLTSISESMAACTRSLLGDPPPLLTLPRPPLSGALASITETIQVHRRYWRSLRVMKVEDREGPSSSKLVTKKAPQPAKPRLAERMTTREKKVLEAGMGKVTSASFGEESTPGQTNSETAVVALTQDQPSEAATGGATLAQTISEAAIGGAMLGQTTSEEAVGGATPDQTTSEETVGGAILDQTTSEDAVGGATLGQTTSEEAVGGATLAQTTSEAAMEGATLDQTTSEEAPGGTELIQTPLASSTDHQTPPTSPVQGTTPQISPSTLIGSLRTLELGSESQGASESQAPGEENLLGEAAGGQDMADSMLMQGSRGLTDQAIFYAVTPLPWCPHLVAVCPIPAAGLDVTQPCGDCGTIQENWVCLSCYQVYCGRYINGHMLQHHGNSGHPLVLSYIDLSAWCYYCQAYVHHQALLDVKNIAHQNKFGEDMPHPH

Histone deacetylase 1 = Histone deacetylase 1 (Homo sapiens, UniProt Q13547); assay: Inhibition of human HDAC1 using RHKK(Ac) as substrate by fluorimetric analysis
Sequence of Histone deacetylase 1 (Q13547 whole entry): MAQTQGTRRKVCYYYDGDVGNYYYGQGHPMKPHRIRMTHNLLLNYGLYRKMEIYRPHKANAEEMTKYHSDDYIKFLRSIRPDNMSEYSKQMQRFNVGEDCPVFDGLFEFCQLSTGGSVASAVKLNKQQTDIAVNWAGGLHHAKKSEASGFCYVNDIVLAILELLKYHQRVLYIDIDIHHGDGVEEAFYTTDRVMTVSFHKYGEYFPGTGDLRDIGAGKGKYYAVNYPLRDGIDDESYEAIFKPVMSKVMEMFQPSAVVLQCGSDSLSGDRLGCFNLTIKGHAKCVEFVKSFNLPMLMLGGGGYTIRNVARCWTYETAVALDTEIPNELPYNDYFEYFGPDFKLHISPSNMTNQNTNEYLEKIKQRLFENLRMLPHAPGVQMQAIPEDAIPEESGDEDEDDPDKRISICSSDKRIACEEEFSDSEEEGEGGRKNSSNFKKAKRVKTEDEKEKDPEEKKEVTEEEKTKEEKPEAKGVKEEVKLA

Sequence of Histone deacetylase 2 (Q92769 whole entry): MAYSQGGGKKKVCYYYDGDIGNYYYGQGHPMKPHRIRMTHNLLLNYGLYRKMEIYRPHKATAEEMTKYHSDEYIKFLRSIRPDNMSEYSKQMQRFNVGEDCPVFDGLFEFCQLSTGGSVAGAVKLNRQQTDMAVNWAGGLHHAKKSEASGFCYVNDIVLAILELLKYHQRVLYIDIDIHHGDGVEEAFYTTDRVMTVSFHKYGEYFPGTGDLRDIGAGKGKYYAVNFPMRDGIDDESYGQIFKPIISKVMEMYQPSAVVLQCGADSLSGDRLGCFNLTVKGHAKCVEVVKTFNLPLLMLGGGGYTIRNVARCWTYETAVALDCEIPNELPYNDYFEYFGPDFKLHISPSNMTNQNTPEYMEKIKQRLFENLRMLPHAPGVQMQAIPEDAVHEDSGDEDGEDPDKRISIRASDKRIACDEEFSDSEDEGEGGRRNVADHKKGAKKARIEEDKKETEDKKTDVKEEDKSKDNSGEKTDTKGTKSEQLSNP
Sequence of Histone deacetylase 3/Nuclear receptor corepressor 2 (HDAC3/NCoR2) (O15379 whole entry): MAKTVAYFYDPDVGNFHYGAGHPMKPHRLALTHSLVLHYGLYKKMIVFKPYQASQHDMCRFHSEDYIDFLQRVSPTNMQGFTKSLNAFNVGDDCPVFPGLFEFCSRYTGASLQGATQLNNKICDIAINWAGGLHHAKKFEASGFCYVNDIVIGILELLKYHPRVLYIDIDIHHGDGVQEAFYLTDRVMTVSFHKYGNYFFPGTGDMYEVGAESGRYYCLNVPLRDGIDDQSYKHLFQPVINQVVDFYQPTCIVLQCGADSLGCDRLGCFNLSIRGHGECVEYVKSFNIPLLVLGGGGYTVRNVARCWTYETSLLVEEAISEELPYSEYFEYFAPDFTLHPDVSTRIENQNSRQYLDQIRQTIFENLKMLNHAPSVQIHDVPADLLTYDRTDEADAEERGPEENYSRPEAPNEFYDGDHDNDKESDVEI
Sequence of Histone deacetylase 3/Nuclear receptor corepressor 2 (HDAC3/NCoR2) (Q9Y618 whole entry, further chain): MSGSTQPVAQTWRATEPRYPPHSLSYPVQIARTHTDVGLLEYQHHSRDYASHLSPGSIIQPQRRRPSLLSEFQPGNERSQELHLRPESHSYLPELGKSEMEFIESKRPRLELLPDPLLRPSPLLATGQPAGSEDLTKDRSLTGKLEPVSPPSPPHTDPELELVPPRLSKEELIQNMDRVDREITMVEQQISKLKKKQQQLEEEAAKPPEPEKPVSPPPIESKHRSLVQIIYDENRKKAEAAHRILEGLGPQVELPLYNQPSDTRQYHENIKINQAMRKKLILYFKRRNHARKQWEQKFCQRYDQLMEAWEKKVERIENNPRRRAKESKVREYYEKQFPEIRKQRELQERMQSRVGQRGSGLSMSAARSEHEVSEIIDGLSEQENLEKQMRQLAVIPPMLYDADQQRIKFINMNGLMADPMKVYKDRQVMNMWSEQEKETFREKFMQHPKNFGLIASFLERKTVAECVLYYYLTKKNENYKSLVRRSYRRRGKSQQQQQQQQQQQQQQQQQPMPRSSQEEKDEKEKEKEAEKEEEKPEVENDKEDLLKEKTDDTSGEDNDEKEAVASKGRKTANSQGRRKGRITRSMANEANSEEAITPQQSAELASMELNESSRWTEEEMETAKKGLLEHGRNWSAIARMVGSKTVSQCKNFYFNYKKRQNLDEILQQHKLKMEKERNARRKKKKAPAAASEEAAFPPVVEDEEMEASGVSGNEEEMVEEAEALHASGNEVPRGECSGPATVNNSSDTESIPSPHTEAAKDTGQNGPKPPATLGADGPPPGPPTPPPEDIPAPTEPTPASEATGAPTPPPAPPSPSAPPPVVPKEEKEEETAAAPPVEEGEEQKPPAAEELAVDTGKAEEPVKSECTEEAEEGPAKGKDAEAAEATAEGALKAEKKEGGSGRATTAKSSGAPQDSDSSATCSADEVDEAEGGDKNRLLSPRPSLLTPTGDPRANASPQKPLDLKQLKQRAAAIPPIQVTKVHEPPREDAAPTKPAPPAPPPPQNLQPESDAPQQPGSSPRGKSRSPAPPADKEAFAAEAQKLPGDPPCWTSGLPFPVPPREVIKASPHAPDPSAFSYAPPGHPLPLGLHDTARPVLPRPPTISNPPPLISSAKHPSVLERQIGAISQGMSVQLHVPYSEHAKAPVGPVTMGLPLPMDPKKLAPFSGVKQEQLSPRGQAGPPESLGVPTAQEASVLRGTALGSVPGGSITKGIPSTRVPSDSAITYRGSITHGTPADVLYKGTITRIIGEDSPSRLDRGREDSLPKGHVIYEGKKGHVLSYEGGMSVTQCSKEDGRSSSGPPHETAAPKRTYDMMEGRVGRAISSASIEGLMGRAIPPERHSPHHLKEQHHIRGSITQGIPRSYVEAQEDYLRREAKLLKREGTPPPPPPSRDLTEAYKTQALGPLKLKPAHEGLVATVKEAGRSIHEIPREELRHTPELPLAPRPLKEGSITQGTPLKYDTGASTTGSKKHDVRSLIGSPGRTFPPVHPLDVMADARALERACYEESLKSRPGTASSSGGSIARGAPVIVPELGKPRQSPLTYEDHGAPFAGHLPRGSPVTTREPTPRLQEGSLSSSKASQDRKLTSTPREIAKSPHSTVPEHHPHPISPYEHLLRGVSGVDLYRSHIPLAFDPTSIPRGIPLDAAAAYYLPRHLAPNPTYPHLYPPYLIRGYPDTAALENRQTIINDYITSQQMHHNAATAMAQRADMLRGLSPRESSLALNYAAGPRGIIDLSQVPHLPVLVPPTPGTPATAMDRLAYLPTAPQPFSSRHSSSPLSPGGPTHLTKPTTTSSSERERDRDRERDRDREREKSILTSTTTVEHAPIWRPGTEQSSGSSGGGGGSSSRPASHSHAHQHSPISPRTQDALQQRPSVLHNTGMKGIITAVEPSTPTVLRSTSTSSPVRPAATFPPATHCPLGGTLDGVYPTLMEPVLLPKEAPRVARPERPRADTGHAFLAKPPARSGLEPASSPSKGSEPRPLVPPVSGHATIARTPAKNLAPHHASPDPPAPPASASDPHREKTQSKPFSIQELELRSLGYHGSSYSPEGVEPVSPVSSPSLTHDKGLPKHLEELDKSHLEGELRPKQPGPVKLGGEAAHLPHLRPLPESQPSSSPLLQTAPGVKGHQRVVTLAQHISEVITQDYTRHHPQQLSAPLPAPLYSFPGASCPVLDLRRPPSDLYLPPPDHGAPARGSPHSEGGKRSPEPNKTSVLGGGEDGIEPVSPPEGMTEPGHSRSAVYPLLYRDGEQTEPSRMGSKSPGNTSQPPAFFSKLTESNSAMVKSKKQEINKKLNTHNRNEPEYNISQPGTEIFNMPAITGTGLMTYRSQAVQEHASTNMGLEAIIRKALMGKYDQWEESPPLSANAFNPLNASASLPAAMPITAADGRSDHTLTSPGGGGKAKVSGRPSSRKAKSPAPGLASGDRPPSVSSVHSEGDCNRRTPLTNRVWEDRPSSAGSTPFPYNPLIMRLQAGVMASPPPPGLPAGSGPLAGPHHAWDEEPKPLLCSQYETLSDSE

Row | SMILES | IC50 [1] | IC50 [2] | IC50 [3] | IC50 (Histone deacetylase 11) | IC50 (Histone deacetylase 2) | IC50 [4] | IC50 (Histone deacetylase 1)
1 | O=C(CCCCC[C@H](NC(=O)C1CCNC1=O)C(=O)Nc1ccccc1)NO (stereo not given in full) | 4 µM | 74 nM | 147 nM | 150 nM | 238 nM | 4 nM | 72 nM
2 | Cc1ccc(NC(=O)CCCCCCC(=O)NO)cc1 | 4.1 µM | 452 nM | 649 nM | 78.6 nM | 589 nM | 12 nM | 200 nM
3 | O=C(CCCCC[C@H](NC(=O)[C@@H]1CCCC(=O)N1)C(=O)NC1CCCC1)NO | 2.4 µM | 5660 nM | 6830 nM | 1440 nM | 5040 nM | 31 nM | 1450 nM
4 | O=C(CCCCC[C@H](NC(=O)C1C(=O)NCC1c1ccccc1)C(=O)Nc1ccccc1)NO (stereo not given in full) | 2.4 µM | 14 nM | 88 nM | 70 nM | 110 nM | 4 nM | 33 nM
5 | O=C(CCCCC[C@H](NC(=O)[C@H]1CCC(=O)N1)C(=O)Nc1ccccc1)NO | 4 µM | 67 nM | 93 nM | 75 nM | 142 nM | 8 nM | 43 nM
6 | Cc1cccc(NC(=O)CCCCCCC(=O)NO)c1 | 0.8 µM | 216 nM | 503 nM | 1600 nM | – | 22 nM | 197 nM
7 | O=C(CCCCCCC(=O)NC1CCCC1)NO | 21 µM | 3330 nM | 4890 nM | 2630 nM | 4390 nM | 75 nM | 1790 nM
8 | O=C(CCCCC[C@H](NC(=O)[C@@H]1CCCC(=O)N1)C(=O)NCCc1ccccc1)NO | 8.2 µM | 539 nM | 227 nM | 262 nM | 956 nM | 8 nM | 102 nM
9 | O=C(CCCCC[C@H](NC(=O)[C@@H]1CCC(=O)N1)C(=O)Nc1ccccc1)NO | 5.4 µM | 89 nM | 125 nM | 37 nM | 143 nM | 6 nM | 59 nM
10 | Cc1cccc(NC(=O)[C@H](CCCCCC(=O)NO)NC(=O)[C@H]2CCC(=O)N2)c1 | 0.5 µM | 11 nM | 30.3 nM | 15.5 nM | 27 nM | 3 nM | 7 nM
11 | O=C(CCCCC[C@H](NC(=O)[C@H]1CCC(=O)N1)C(=O)Nc1cccc(C(F)(F)F)c1)NO | 0.5 µM | 2 nM | 10.6 nM | 55.5 nM | 8 nM | 2 nM | 2 nM
12 | O=C(CCCCCCC(=O)Nc1cccc(C(F)(F)F)c1)NO | 2.5 µM | 185 nM | 374 nM | 75.1 nM | 165 nM | 6 nM | 63 nM
13 | O=C(CCCCCCC(=O)NCCc1ccccc1)NO | 18.2 µM | 3610 nM | 1350 nM | 1130 nM | 5160 nM | 25 nM | 1140 nM
14 | O=C(CCCCC[C@H](NC(=O)[C@@H]1CCCC(=O)N1)C(=O)Nc1ccccc1)NO | 2.5 µM | 20 nM | 51 nM | 47 nM | 89 nM | 5 nM | 25 nM
15 | O=C(CCCCC[C@H](NC(=O)[C@@H]1CC(=O)N1)C(=O)Nc1ccccc1)NO | 2.2 µM | 62 nM | 113 nM | 135 nM | 89 nM | 3 nM | 34 nM
16 | O=C(CCCCC[C@H](NC(=O)[C@H]1CCC(=O)N1)C(=O)NCCc1ccccc1)NO | 4.9 µM | 144 nM | 210 nM | 47.8 nM | 180 nM | 6 nM | 77 nM
17 | O=C(CCCCC[C@H](NC(=O)C1CCCNC1=O)C(=O)Nc1ccccc1)NO (stereo not given in full) | 5.1 µM | 116 nM | 244 nM | 255 nM | 689 nM | 19 nM | 131 nM
18 | Cc1ccc(NC(=O)[C@H](CCCCCC(=O)NO)NC(=O)[C@H]2CCC(=O)N2)cc1 | 0.6 µM | 66 nM | 163 nM | 127 nM | 93 nM | 4 nM | 32 nM
